Laboratory results: the NIST ThermoML archive (doi:10.1016/j.jct.2015.08.040)

Assays:
[1] = 100 kPa, Liquid; for speed of sound: Frequency=2 MHz, Linear variable-path acoustic interferometer; for mass density: Vibrating tube method
[2] = xn = mol fraction of the nth substance listed; conditions: 100 kPa, Liquid; for speed of sound: Frequency=2 MHz, Linear variable-path acoustic interferometer; for mass density: Vibrating tube method

CCCCOCCO [2-butoxyethan-1-ol]
[1]
Conditions	mass density [kg/m3]	speed of sound [m/s]
298.15 K	896.46	1305
303.15 K	892.22	–
308.15 K	887.97	1275
313.15 K	883.7	–
318.15 K	879.42	–

CCOCCO [2-ethoxyethan-1-ol]
[1]
Conditions	mass density [kg/m3]	speed of sound [m/s]
298.15 K	925.36	1301.4
303.15 K	920.72	–
308.15 K	916.11	1274.8
313.15 K	911.47	–
318.15 K	906.9	–

COCCO [2-methoxyethan-1-ol]
[1]
Conditions	mass density [kg/m3]	speed of sound [m/s]
298.15 K	960.29	1341.6
303.15 K	955.84	–
308.15 K	951.16	1302
313.15 K	946.49	–
318.15 K	941.89	–

COCCO [2-methoxyethan-1-ol] + OCc1ccccc1
[2], x2 = 0
Conditions	mass density [kg/m3]	speed of sound [m/s]
298.15 K	960.29	1341.6
303.15 K	955.84	–
308.15 K	951.16	1302
313.15 K	946.49	–
318.15 K	941.89	–

OCc1ccccc1 [benzenemethanol]
[1]
Conditions	mass density [kg/m3]	speed of sound [m/s]
298.15 K	1041.05	1534.5
303.15 K	1037.15	–
308.15 K	1033.32	1496
313.15 K	1029.46	–
318.15 K	1025.59	–

OCc1ccccc1 [benzenemethanol] + CCCCOCCO
[2], x1 = 1
Conditions	mass density [kg/m3]	speed of sound [m/s]
298.15 K	1041.05	1534.5
303.15 K	1037.15	–
308.15 K	1033.32	1496
313.15 K	1029.46	–
318.15 K	1025.59	–

OCc1ccccc1 [benzenemethanol] + CCOCCO
[2], x1 = 1
Conditions	mass density [kg/m3]	speed of sound [m/s]
298.15 K	1041.05	1534.5
303.15 K	1037.15	–
308.15 K	1033.32	1496
313.15 K	1029.46	–
318.15 K	1025.59	–
